Test results reported in patent publication US20250114353A1, “Combination Treatment Regimens - SMARCA2 Degrader With Gemcitabine” (priority 2023, published 2025).

Test system: NCI-H838 tumors
Assay: NCI-H838 tumor bearing mouse model (SMARCA4-deficient lung cancer xenograft), tumor growth inhibition
Format: in vivo
Settings: NOD/SCID female mice, NCI-H838-#5 s.c. xenograft, versus vehicle
Protocol: NOD/SCID female mice were inoculated subcutaneously with NCI-H838-#5 cells (5×10^6) into the right flank in PBS 0.1 ml mixed with Matrigel.
As used herein, tumor growth inhibition is calculated as follows: Mean % Inhibition=(mean(C)−mean(T))/mean(C)*100%, wherein C is the tumor volume in the control arm, and T is the tumor volume in the treatment arm.
The NCI-H838-#5 tumor cells are maintained in vitro with RPMI1640 medium supplemented with 10% fetal bovine serum at 37° C. in an atmosphere of 5% CO2 in air. The cells in exponential growth phase are harvested and quantitated by cell counter before tumor inoculation. NOD-SCID female mice are inoculated subcutaneously in the right front flank region with NCI-H838-#5 tumor cells (5×10^6) in 0.1 ml of PBS mixed with Matrigel (1:1) for tumor development. The randomization is performed when the mean tumor size reaches approximately 100-150 mm^3.
For the NCI-H838 CDX model, mice are inoculated subcutaneously with the NCI-H838 tumor cells (5×10^6).

Row | Compound | tumor growth inhibition (TGI) (single agent Formula (I) 100 mg/kg s.c. Q3D) | tumor growth inhibition (TGI) (single agent gemcitabine 100 mg/kg i.v. BIW)
1 | Cc1ncsc1-c1ccc([C@H](C)NC(=O)[C@@H]2C[C@@H](O)CN2C(=O)[C@@H](c2cc(O[C@@H](C)CN3CC[C@@H](N4CCN5c6cc(-c7ccccc7O)nnc6NC[C@H]5C4)C3)no2)C(C)C)cc1 [Formula (I)] | significantly inhibits the growth of NCI-H838 tumors | 
2 | Nc1ccn([C@@H]2O[C@H](CO)[C@@H](O)C2(F)F)c(=O)n1 [gemcitabine, 4-amino-1-((2R,4R,5R)-3,3-difluoro-4-hydroxy-5-(hydroxymethyl)tetrahydrofuran-2-yl)pyrimidin-2(1H)-one] |  | significant tumor growth inhibition
